Series [1] concerns intestinal resorption of cholesterol. Put plainly: inhibition of the intestinal resorption of cholesterol (CHORES), radioactive cholesterol test feed, faeces radioactivity. As to conditions: rats, 100 μmol/kg p.o.; faeces collected for three days; untreated control = 100%. Type of series: in vivo, normal female albino rats. As to the method:
The substances to be investigated are administered to groups each comprising 6 normal female albino rats (body weight about 70 g) by means of a probang. Immediately thereafter the animals received by means of a probang a test feed containing a radioactive cholesterol. Thereafter, the faeces is collected for three days, freeze-dried and pulverized, and an aliquot is burnt in order to determine the radioactivity of the faeces. Untreated control animals excrete about 40-50% of the radioactive cholesterol taken up with the feed. The radioactive cholesterol which is not excreted is regarded as the resorbed cholesterol, the amount of resorbed cholesterol in the untreated control animals being arbitrarily fixed as 100%. Animals which have been treated with a substance inhibiting the intestinal resorption of cholesterol show a lower resorption of radioactive cholesterol than untreated control animals. The cholesterol resorption (CHORES) is expressed in percentages of the cholesterol resorption of untreated control animals.
(§1) In the following Table there are given the results obtained with representative products provided by the invention. There are given for each of the compounds listed therein the dosage administered (in μmol/kg p.o.) as well as the cholesterol resorption (CHORES) determined in percentages of the cholesterol resorption of untreated control animals. Moreover, the Table contains information concerning the acute toxicity of the compounds investigated (LD50 in mg/kg in the case of single oral administration to mice).

Series [2] is described as follows: acute toxicity, single oral administration to mice. As to conditions: mouse, in vivo, single oral administration (p.o.).
Excerpt: as §1

On to `C[C@@H]1N=C(c2ccccc2Cl)c2c(ccc(NC(=O)NC3CCC(O)CC3)c2Br)N(C)C1=O` (some centres unmarked), for which the “CHORES (cholesterol resorption in percentages of the cholesterol resorption of untreated control animals)” value in series [1] is 34%. Same read-out and setting: as for `C[C@@H]1N=C(c2ccccc2Cl)c2c(ccc(NC(=O)NCC3COC(C)(C)O3)c2Br)N(C)C1=O` (some centres unmarked), the figure is 25%; as for `C[C@@H]1N=C(c2ccccc2Cl)c2c(ccc(NC(=O)N3CCCC(O)C3)c2Br)N(C)C1=O` (some centres unmarked), 44%.

Consider `C[C@@H]1N=C(c2ccccc2Cl)c2c(ccc(NC(=O)NCC(O)CO)c2Br)N(C)C1=O` (stereo partly drawn) [NHCH2 CH(OH)CH2 OH, 1-[(S)-6-bromo-5-(o-chlorophenyl)-2,3-dihydro-1,3-dimethyl-2-oxo-1H-1,4-benzodiazepin-7-yl]-3-(2,3-dihydroxypropyl)urea], for which the “CHORES (cholesterol resorption in percentages of the cholesterol resorption of untreated control animals)” value in series [1] is 24%.

The term LD50 denotes the dose at which mortality reaches 50%. A lower LD50 goes with greater toxicity. Turning to `C[C@@H]1N=C(c2ccccc2Cl)c2c(ccc(NC(=O)NC(CO)(CO)CO)c2Br)N(C)C1=O` [NHC(CH2 OH)3, 1-[(S)-6-bromo-5-(o-chlorophenyl)-2,3-dihydro-1,3-dimethyl-2-oxo-1H-1,4-benzodiazepin-7-yl]-3-[2-hydroxy-1,1-bis(hydroxymethyl)ethyl]urea], the “CHORES (cholesterol resorption in percentages of the cholesterol resorption of untreated control animals)” value in series [1] was determined as 30%. Also, the 50% lethal dose (LD50) in series [2] is > 5000 mg/kg. For `C[C@@H]1N=C(c2ccccc2Cl)c2c(ccc(NC(=O)NC(C)(CO)CO)c2Br)N(C)C1=O` [NHC(CH3)(CH2 OH)2, 1-[(S)-6-bromo-5-(o-chlorophenyl)-2,3-dihydro-1,3-dimethyl-2-oxo-1H-1,4-benzodiazepin-7-yl]-3-[1,1-bis(hydroxymethyl)ethyl]urea], in that order: 31% and > 5000 mg/kg.

Values taken from patent publication US4474777A, “Benzodiazepine derivatives and their pharmaceutical use” (Hoffmann-La Roche Inc., priority 1982, dated 1984).
